According to patent US10537534B1, “Compositions and methods for treating skin conditions using visible light and resorcinols” (Johnson & Johnson Consumer Inc., priority 2019, dated 2020):

Columns and labels:
C. acnes ATCC 6919 [1] = assay: Minimum inhibitory concentration (MIC) of 4-hexyl resorcinol against C. acnes growth, serial dilution in 96-well plate, visible turbidity; type: cell-based, Cutibacterium acnes; parameters: key: A “+” indicates growth; a “−” indicates no growth; conditions: anaerobic, 3 days, 35° C.
Description: (§1) A standard C. acnes ATCC 6919 culture is grown in Reinforced Clostridial Media (RCM) (Remel, Lenexa, Kans.). A suspension of C. acnes is adjusted to OD600=1.0 using a Spectromax M5 spectrophotometer (Molecular Devices, San Jose, Calif.) to yield a concentration of 10^8 cfu/ml. A 1:100 dilution of the standardized suspension is created to yield an inoculum concentration of 10^6 cfu/ml. Therefore, 100μl of inoculum into 100 μl of test sample yields 5×10^5 cfu/ml C. acnes within a 96-well experiment plate.
The minimum inhibitory concentration (MIC) of 4-hexyl resorcinol was determined to investigate its ability to inhibit the growth of C. acnes. All media and diluents were sterile. Aseptic techniques were used during study execution.
A C. acnes inoculum was prepared as set forth above.
A 0.1% (w/w) stock of 4-hexylresorcinol (Alfa Aesar, Tewksbury, Mass.) was made in RCM. Serial 1:2 dilutions were made in RCM across successive wells of a 96-well plate (sterile, u-bottom, untreated culture plate from Greiner Bio-one, Monroe, N.C.) to yield 10 test concentrations. After inoculation with equal volumes of C. acnes suspension, the test concentrations ranged from 0.05% through […] (v/v). Sterile RCM and 5×10^5 cfu/ml C. acnes in RCM were set up as a negative growth control and a positive growth control, respectively. Sterile 0.1% (w/w) 4-hexylresorcinol in RCM was set up as a turbidity control.
The 96-well plate was incubated anaerobically for 3 days at 35° C. The presence of visible turbidity within a challenged well was indicative of growth, while a clear well indicated no growth. The lowest concentration that inhibited C. acnes growth was determined to be the MIC. Negative growth control (not turbid) and positive growth control (turbid) results were as expected.

C. acnes ATCC 6919 [2] = assay: In vitro reduction of C. acnes by 4-hexylresorcinol with or without 440 nm blue light, colony count; type: cell-based, Cutibacterium acnes; conditions: for Ave. Log Reduction ± S.D., arithmetic sum (expected additive): sum of light only and 0.002% 4-hexylresorcinol only
Description: as §1
The culture is incubated in anaerobic chamber (<10 ppm O^2, 2.5-5% H^2, balance N^2 at 35±2° C.), in the dark, on an orbital shaker at 80 RPM. For test treatments including light, the prepared C. acnes culture is exposed for two, 60-minute light cycles with a 60-minute hold time between. Each light cycle is with blue light at wavelength 440 nm and 22±2 mW/cm^2 intensity. After treatments, the sample is incubated overnight (16±2 hours) in an anaerobic chamber. The sample is then recovered onto agar and incubated 5-7 days until clear colonies are visible. After growth, the remaining viable C. acnes colonies are counted; converted to cfu/ml and the log 10 reduction in number of cells is calculated (log 10 reduction=no light control sample−test sample).
A C. acnes inoculum was prepared as set forth above and in the same manner as Example 1. The solution was stored at 4° C. until time of use. The stock solution was added to RCM to produce a final concentration of 0.01% (v/v) and inoculated with 0.1 mL of the C. acnes suspension to yield 10^6 cfu/ml. The prepared culture in RCM+ALA was incubated by shaking at 80 rpm, in the dark (foil covered), and in an anaerobic chamber at 35±2° C. for 24 hours.
A 0.02% (w/v) of n-4-hexylresorcinol (Alfa Aesar, Tewksbury, Mass.) was prepared in RCM. The sample stock solution was mixed as 1:10 (v/v) with 24-hour C. acnes culture in RCM+ALA. Organism control culture was diluted 1:10 (v/v) with RCM for equivalent organism concentration.
The in vitro evaluation was conducted as follows. The prepared C. acnes culture (grown with ALA) was mixed with the test sample as described above, added to 6-well plates and then exposed to two 60-minute, 440 nm blue light (22 mW) exposures, separated by one 60-minute rest period in the dark. Two samples were tested: 4-hexylresorcinol at 0.002% (v/v) and 24-hour C. acnes culture in RCM+ALA alone. A duplicate, 6-well plate was kept un-exposed to light as a control. All plates were incubated anaerobically, overnight, in the dark (foil covered), and in an anaerobic chamber at 35±2° C.
After 24-hour incubation, samples were serial diluted and plated onto Reinforced Clostridial Agar (Remel, Lenexa, Kans.). Agar plates were incubated anaerobically at 35±2° C. for 5-7 days until bacterial colonies were well-established. Then, colonies were counted and colony forming units (CFU) per ml were calculated. Statistically significant differences are defined by unshared letter groupings.

CCCCCCc1ccc(O)cc1O [4-hexylresorcinol] was tested, and the Growth (C. acnes ATCC 6919 [1]; concentration 1.25E^−2 % v/v) was “−”, the Growth (C. acnes ATCC 6919 [1]; concentration 1.56E^−3 % v/v) was “−” and the Growth (C. acnes ATCC 6919 [1]; concentration 1.95E^−4 % v/v) was “+”. The Growth (C. acnes ATCC 6919 [1]; concentration 2.50E^−2 % v/v) was “−”, the Growth (C. acnes ATCC 6919 [1]; concentration 3.13E^−3 % v/v) was “−” and the Growth (C. acnes ATCC 6919 [1]; concentration 3.91E^−4 % v/v) was “+”. The Growth (C. acnes ATCC 6919 [1]; concentration 5.0E^−2 % v/v) was “−”, the Growth (C. acnes ATCC 6919 [1]; concentration 6.25E^−3 % v/v) was “−” and the Growth (C. acnes ATCC 6919 [1]; concentration 7.81E^−4 % v/v) was “+”. For the same molecule, the Growth (C. acnes ATCC 6919 [1]; concentration 9.77E^−5 % v/v) was “+”, the “Ave. Log Reduction ± S.D.” value (C. acnes ATCC 6919 [2]; 0.002% (v/v) 4-hexylresorcinol plus 440 nm blue light (22 mW), two 60-minute exposures, simultaneous) was 4.84 log and the “Ave. Log Reduction ± S.D.” value (C. acnes ATCC 6919 [2]; 0.002% (v/v) 4-hexylresorcinol plus 440 nm blue light (22 mW), two 60-minute exposures, simultaneous, listed as HR) was 4.84 ± 0.40 log. For the same molecule, the “Ave. Log Reduction ± S.D.” value (C. acnes ATCC 6919 [2]; 0.002% (v/v) 4-hexylresorcinol treatment only, no light) was 1.00 log, the “Ave. Log Reduction ± S.D.” value (C. acnes ATCC 6919 [2]; 0.002% (v/v) 4-hexylresorcinol treatment only, no light, listed as HR) was 1.00 ± 0.55 log and the “Benefit from the synergistic combination over expected additive reduction” value (C. acnes ATCC 6919 [2]; light plus 0.002% 4-hexylresorcinol versus arithmetic sum) was 100 fold. The “Ave. Log Reduction ± S.D., arithmetic sum (expected additive)” value (C. acnes ATCC 6919 [2]) was 2.83 log and the “Ave. Log Reduction ± S.D., arithmetic sum (expected additive)” value (C. acnes ATCC 6919 [2]; listed as HR) was 2.83 ± 1.08 log.
